The test system of assay [1] is S. aureus ATCC 29213. Kind of assay: MIC assay. Type of assay: cell-based, Staphylococcus aureus. How it is done: 1. Staphylococcus aureus—the principal staphylococcal test micro-organism used in these studies was Staphylococcus aureus ATCC 29213. This strain is the one recommended for QC/QA purposes in Minimum Inhibitory Concentration (MIC) assays by the US Clinical and Laboratory Standards Institute (formerly the NCCLS), an FDA-recognised body. […] The staphylococci and enterococci were cultured and maintained on Mueller-Hinton Medium (agar and broth) at pH 7.2; they were incubated aerobically at 37° C. for 24 hours. This is a standard international method for quantitatively assessing the antimicrobial activity of a compound in a liquid medium. The method used a 96-well microtitre plate, capable of holding about 200 μl of liquid per well. […] The culture media were as described above for the relevant test organisms. The wells were inoculated with a liquid suspension of freshly grown micro-organism and incubated under the conditions described above. After incubation, the microtitre plate was examined visually (with the aid of a light box) for cell pellets in and/or opaque wells, which would indicate microbial growth. The MIC value was recorded as the lowest concentration of test compound required to inhibit microbial growth, ie, the lowest concentration for which the liquid in the well remained clear. The assays were conducted in duplicate and included both negative (culture medium only) and positive (culture medium, diluting solvent and inoculum) controls.

For assay [2], the system named is S. aureus ATCC 29213. Kind of assay: MBC assay. Type of assay: cell-based, Staphylococcus aureus. How it is done: 1. Staphylococcus aureus—the principal staphylococcal test micro-organism used in these studies was Staphylococcus aureus ATCC 29213. This strain is the one recommended for QC/QA purposes in Minimum Inhibitory Concentration (MIC) assays by the US Clinical and Laboratory Standards Institute (formerly the NCCLS), an FDA-recognised body. […] The staphylococci and enterococci were cultured and maintained on Mueller-Hinton Medium (agar and broth) at pH 7.2; they were incubated aerobically at 37° C. for 24 hours. This assay, normally carried out after an MIC assay, determines the minimum concentration of a compound that is lethal to the micro-organism being tested. […] These samples were then individually sub-cultured on non-selective agar medium, under the incubation conditions described above. Following incubation they were examined visually for bacterial growth.

Assay [3] concerns S. aureus ATCC 29213. As to the kind of experiment: Disc diffusion assay (DDA). Type of assay: cell-based, Staphylococcus aureus. An excerpt: 1. Staphylococcus aureus—the principal staphylococcal test micro-organism used in these studies was Staphylococcus aureus ATCC 29213. This strain is the one recommended for QC/QA purposes in Minimum Inhibitory Concentration (MIC) assays by the US Clinical and Laboratory Standards Institute (formerly the NCCLS), an FDA-recognised body. S. aureus ATCC 29213 is susceptible to beta-lactam antibiotics such as methicillin and to many other antibiotics in clinical use worldwide today. The staphylococci and enterococci were cultured and maintained on Mueller-Hinton Medium (agar and broth) at pH 7.2; they were incubated aerobically at 37° C. for 24 hours. A sterile paper disc was impregnated with a sample of the test compound and a minimum of 30 minutes allowed for the solvents to evaporate as far as possible. The disc was then placed on an agar plate onto which the test micro-organism had been inoculated. The plate was then incubated under the conditions described above, following which it was examined visually for signs of bacterial growth. If the test compound had antimicrobial activity, a circular zone of no growth would be obtained around the disc. The diameter of this zone of “inhibition” was measured using a ProtoCOL™ automated zone sizer (Synbiosis, Cambridge, UK). In general, a greater diameter and/or area of the zone of inhibition indicates a greater antimicrobial activity in the relevant test compound, although other factors such as test compound mobility through the agar gel may also influence the result. […] The exceptions were the thymoquinone assays, in which only 50 μg of the benzoquinone was used.
On the technique in general: Agar diffusion results depend on both activity and mobility in agar.

Assay [4] has as its system P. acnes NCTC 737. As to the kind of experiment: MIC assay. Format: cell-based, Propionibacterium acnes. How it is done: (§1) 2. Propionibacterium spp.—the principal propionibacterial strain used in these studies was Propionibacterium acnes NCTC 737. This is the type strain of the genus; it is fully susceptible to antibiotics.
(§2) The Propionibacterium spp organisms were cultured and maintained on Wilkins-Chalgren Anaerobe Medium (agar and broth) at pH 6.0; cultures were incubated anaerobically at 37° C. for 72 hours.
This is a standard international method for quantitatively assessing the antimicrobial activity of a compound in a liquid medium. The method used a 96-well microtitre plate, capable of holding about 200 μl of liquid per well. […] The culture media were as described above for the relevant test organisms.
The wells were inoculated with a liquid suspension of freshly grown micro-organism and incubated under the conditions described above. After incubation, the microtitre plate was examined visually (with the aid of a light box) for cell pellets in and/or opaque wells, which would indicate microbial growth. The MIC value was recorded as the lowest concentration of test compound required to inhibit microbial growth, ie, the lowest concentration for which the liquid in the well remained clear.
The assays were conducted in duplicate and included both negative (culture medium only) and positive (culture medium, diluting solvent and inoculum) controls.

The subject of assay [5] is P. acnes NCTC 737. As to the kind of experiment: MBC assay. Type of assay: cell-based, Propionibacterium acnes. How it is done:
as §1, §2
This assay, normally carried out after an MIC assay, determines the minimum concentration of a compound that is lethal to the micro-organism being tested.
These samples were then individually sub-cultured on non-selective agar medium, under the incubation conditions described above. Following incubation they were examined visually for bacterial growth.

Assay [6] concerns P. acnes NCTC 737. As to the kind of experiment: Disc diffusion assay (DDA). Format: cell-based, Propionibacterium acnes. Conditions: 200 μg per disc. How it is done: (§3) 2. Propionibacterium spp.—the principal propionibacterial strain used in these studies was Propionibacterium acnes NCTC 737.
as §2
A sterile paper disc was impregnated with a sample of the test compound and a minimum of 30 minutes allowed for the solvents to evaporate as far as possible. The disc was then placed on an agar plate onto which the test micro-organism had been inoculated. The plate was then incubated under the conditions described above, following which it was examined visually for signs of bacterial growth. […] The diameter of this zone of “inhibition” was measured using a ProtoCOL™ automated zone sizer (Synbiosis, Cambridge, UK).
The area of the zone of inhibition was calculated from the measured zone diameter (D) using the formula π(D/2)^2.
(§4) For all (S)DDA assays, 200 μg of each compound was loaded onto each disc.

The test system of assay [7] is P. acnes NCTC 737. As to the kind of experiment: Synergy disc diffusion assay (SDDA). The following applies: for SDDA area increase / SDDA increase: quinone + BP; for SDDA area increase: over larger single-compound zone; for SDDA increase: over larger single-compound zone diameter; for SDDA with BP: quinone combined with BP on one disc, 200 μg of each. Type of assay: cell-based, Propionibacterium acnes. As to the method:
as §3, §2
This is a variation on the DDA method, in which two compounds are tested together for their combined antimicrobial activity. It provides a qualitative indication as to whether the compounds are likely to interact synergistically.
Two test compounds A and B were placed on a single paper disc and the above described DDA procedure repeated.
Each of the quinones was then subjected, in combination with BP, to the SDDA assay described above.
as §4

Setting [8] is: S. aureus ATCC 29213, Table 1 (Example 1).
[9] abbreviates: Table 1, zone diameter, 200 μg per disc (thymoquinone 50 μg).
Setting [10] is: P. acnes NCTC 737, Table 7 (Example 6).
Where [11] appears, read: Cutibacterium acnes, NCTC737, P. acnes NCTC 737 (resistance None), Table 9 (Example 8).
Where [12] appears, read: Cutibacterium acnes, NCTC737, P. acnes NCTC 737, Table 7 (Example 6).

The source of these data is patent publication US20080262097A1, “Formulations” (priority 2005, published 2008).

Each structure is given as a SMILES string. Converted amounts (≈) assume the structure as drawn.

With `Oc1ccc(O)cc1` [p-hydroquinone], the MIC was 62.5 mg/L (≈ 568 µM) in the assay on S. aureus ATCC 29213 [1] (setting [8]) and over 250 mg/L against P. acnes NCTC 737 [4] (setting [10]). For the same molecule, the MBC in the assay on S. aureus ATCC 29213 [2] (setting [8]) was 62.5 mg/L (≈ 568 µM); with P. acnes NCTC 737 [5] (setting [10]) it was over 250 mg/L. Also, the DDA in the assay on S. aureus ATCC 29213 [3] (setting [9]) amounted to 18.94 mm; in the assay on P. acnes NCTC 737 [6] (Table 7, zone diameter), 0.0 mm. In addition, the SDDA area increase with P. acnes NCTC 737 [7] worked out at 87.01%. In the assay on P. acnes NCTC 737 [7], the SDDA increase worked out at 8.91 mm. The “SDDA with BP” value in the assay on P. acnes NCTC 737 [7] was 33.16 mm.

With `CCc1cc(O)ccc1O` [2-ethyl-p-hydroquinone], the MIC against S. aureus ATCC 29213 [1] (setting [8]) and with P. acnes NCTC 737 [4] (setting [10]) was 7.8 mg/L (≈ 56.5 µM) in each case. The MBC against S. aureus ATCC 29213 [2] (setting [8]) turned out to be 15.6 mg/L (≈ 113 µM); against P. acnes NCTC 737 [5] (setting [10]), 31.25 mg/L (≈ 226 µM). Also, the DDA came to 21.06 mm with S. aureus ATCC 29213 [3] (setting [9]) and 9.90 mm with P. acnes NCTC 737 [6] (Table 7, zone diameter). In addition, in the assay with P. acnes NCTC 737 [7], the SDDA area increase was 84.28%. Besides, the SDDA increase in the assay with P. acnes NCTC 737 [7] stood at 8.23 mm. Besides, in the assay with P. acnes NCTC 737 [7], the “SDDA with BP” value was 31.25 mm.

For `CC(C)(C)c1cc(O)ccc1O` [TBHQ, t-butyl hydroquinone], the MIC with S. aureus ATCC 29213 [1] (S. aureus ATCC 29213, Table 5 (Example 5)) amounted to 7.8 mg/L (≈ 46.9 µM); in the assay with S. aureus ATCC 29213 [1] (Staphylococcus aureus, ATCC29213), 7.8 mg/L (≈ 46.9 µM); with P. acnes NCTC 737 [4] (setting [11]), 7.8 mg/L (≈ 46.9 µM); in the assay with P. acnes NCTC 737 [4] (setting [12]), 7.8 mg/L (≈ 46.9 µM). For the same molecule, the MBC is 15.6 mg/L (≈ 93.9 µM) against S. aureus ATCC 29213 [2] (Staphylococcus aureus, ATCC29213, S. aureus ATCC 29213, Table 5 (Example 5)); 7.8 mg/L (≈ 46.9 µM) with S. aureus ATCC 29213 [2] (Staphylococcus aureus, ATCC29213, S. aureus ATCC 29213, Table 1 (Example 1)); 15.6 mg/L (≈ 93.9 µM) in the assay on P. acnes NCTC 737 [5] (setting [11]); 15.6 mg/L (≈ 93.9 µM) against P. acnes NCTC 737 [5] (setting [12]). Moreover, the DDA is listed as 41.77 mm in the assay with S. aureus ATCC 29213 [3] (setting [9]); 46.79 mm in the assay with S. aureus ATCC 29213 [3] (Table 6 (Example 5), zone diameter, 200 μg per disc); 9.95 mm with P. acnes NCTC 737 [6] (Table 7, zone diameter); 8.65 (±0.31) mm with P. acnes NCTC 737 [6] (Table 10 (Example 8), zone diameter); 15.0 mm with P. acnes NCTC 737 [6] (Table 11 (Example 9), mean of three replicates). The SDDA area increase in the assay with P. acnes NCTC 737 [7] turned out to be 211.51%. The SDDA increase in the assay on P. acnes NCTC 737 [7] was found to be 18.55 mm. In the assay on P. acnes NCTC 737 [7], the “SDDA with BP” value was found to be 42.80 mm.

Broadly, the MIC is the lowest concentration found to suppress growth. One may read the MBC as the smallest concentration meeting the test's criterion for killing.
